Entries after “also recorded” stand apart in the source; their conditions may differ. Like-named read-outs stand apart in the source and are kept apart here. No end group written: not given here.
What was measured:
[1] = test system: differentiated Caco-2 monolayer; test: Identification of translocated peptides in basal medium of Caco-2 monolayers by MALDI-TOF-MS; details: Caco-2 monolayer incubated apically with 32 µmol/L PF-488 labeled parent peptide, 37°C
Procedure: (§1) Cells were pre-incubated with transport medium (Hank's Balanced Salt Solution (HBSS) with Ca^2+, Mg^2+ and glucose) (Invitrogen) (200 µl in the apical, 900 µl in the basal compartment of the transwell system) for 30 min at 37°C. Methyl-β-cyclodextrin (MβCD; Sigma-Aldrich, Munich, Germany; 2 mmol/L) was added to the apical compartment to inhibit endocytosis. Then, PF–488 labeled GP dissolved in 100 µl transport medium were added on the apical side of the cells at a total concentration of 32 µmol/L or 145 µmol/L. Cells were incubated at 37°C for 3 or 24 h. Thereafter, media from both compartments (apical and basal) were removed to be further analyzed by fluorescence spectroscopy and MALDI–TOF–MS; cell inserts were prepared for flow cytometry and confocal laser scanning microscopy.
(§2) For mass spectrometric analyses peptides were concentrated and desalted using C18 ZipTips (Millipore). MALDI–TOF–MS analysis of the apical and basal cell culture media was performed using a Bruker Ultraflex I instrument (Bruker Daltonics, Bremen, Germany) with 2,5-dihydroxybenzoic acid (DHB)/methylenbisphosphonic acid as matrix. For calibration an external standard peptide mixture (Bruker Daltonics) was used. MS-spectra were processed by the software FlexAnalysis (version 3.0, Bruker Daltonics). The peptide sequences of P56–68 and P31–43 as well as fragments of these peptides were deduced from the detected molecular mass considering the H^+, Na^+ and K^+ adducts. Masses were assigned to peptides allegeable to cleavage of GP. Detected GP were quantified by calculating the relative area under the curve (AUC). The values of three independent experiments are given as mean values.

[2] = test system: immature dendritic cells (iDC); test: Cytokine secretion (IL-8, TNF-α) by immature dendritic cells, sandwich ELISA; type: cell-based; details: for Secretion of IL-8 and TNF-α by dendritic cells: iDC from CD14+ PBMCs, 100 µg/mL peptide in RPMI + 2% human serum, 24 h, sandwich ELISA, three experiments (Fig. S1)
Procedure: Supplementary file pone.0113932.s001.tiff: Figure S1 Effect of P31–43 and P56–68 on cytokine secretion (IL-8, TNF-α) by immature dendritic cells (iDC). iDC were generated from CD14+ PBMCs by a 5-day incubation with 500 U/mL IL-4 and 1000 U/mL GM-CSF in RPMI media with 10% human serum. Then, iDC were incubated with 100 µg/mL P31–43 or P56–68 in RPMI+2% human serum for 24 h. IL-8 (A) and TNF-α (B) secretion in the media were analyzed by a commercially available sandwich ELISA (R&D, Wiesbaden, Germany). Each experiment was performed three times; data are given as mean ± SD; only significant differences are shown as *p<0.05, **p<0.01. (TIFF) Click here for additional data file.
Supplementary file pone.0113932.s002.tiff: Figure S2 Effect of the basal media - after incubation of a Caco-2 monolayer with P31–43 and P56–68 - on cytokine secretion (IL-8, TNF-α) by immature dendritic cells (iDC). iDC were generated from CD14+ PBMCs by 5-day incubation with 500 U/mL IL-4 and 1000 U/mL GM-CSF in RPMI media with 10% human serum. iDC were incubated 24 h with basal media of Caco-2 monolayers after they had been exposed to PF-488 labeled P31–43 and P56–68 on the apical side of the cells. IL-8 (A) and TNF-α (B) secretion in the media was analyzed by sandwich ELISA. Each experiment was performed three times; data are given as mean ± SD. (TIFF) Click here for additional data file.

[3] = test system: Caco-2 cells (brush border membrane peptidases APN, CPP, DPP IV); test: Digestion of gliadin peptides at the apical side of Caco-2 monolayers, MALDI-TOF-MS relative AUC; details: PF-488 labeled peptide at apical side of Caco-2 monolayer, HBSS, 37°C, mean of three independent experiments
Procedure: as §1, §2

[4] = test system: Caco-2 cells (brush border membrane peptidases APN, CPP, DPP IV)
Procedure: as §1, §2

[5] = apical medium (HBSS transport medium) of differentiated Caco-2 monolayer in transwell; details: human, 37°C, up to 24 h
[6] = apical medium of differentiated Caco-2 monolayer in transport medium (HBSS with Ca2+, Mg2+ and glucose); details: human, 37°C, up to 24 h
[7] = basal medium (HBSS transport medium) of Caco-2 monolayer after apical peptide addition; details: human, 37°C, up to 24 h
[8] = basal medium of differentiated Caco-2 monolayer (peptide added apically) in transport medium (HBSS); details: human, 37°C; for fragment found: up to 3 h
[9] = basal medium of differentiated Caco-2 monolayer with MβCD in the apical compartment; details: human, 37°C, up to 24 h

Row | Substance | Peptide detected in basal media after 24 h [1] | Secretion of IL-8 and TNF-α by dendritic cells [2] | fragment found [5] | cleaved bond [6] | fragment found [8] | also measured
1 | LGQQQPFPPQQP [P31–42] | detected |  |  |  |  | Peptide detected in basal media after 3 h ([1]; 3 h): detected
2 | LGQQQPFPPQQPY [P31–43] |  | increased secretion |  |  |  | Cytokine production by iDC with basal culture media of peptide-exposed Caco-2 cells ([2]; iDC incubated 24 h with basal media of Caco-2 monolayers exposed apically to PF-488 labeled peptide, ELISA (Fig. S2)): did not significantly increase; Peptide remaining in the apical compartment still intact ([3]; 3 h, MALDI-TOF-MS after C18 ZipTip, relative AUC): 76%; C-terminal tyrosine residue cleaved (presumably by carboxypeptidase P) ([3]; 24 h, MALDI-TOF-MS relative AUC): 83%
3 | LQLQPFPQPQLP [P56–67] | found |  |  |  |  | 
4 | LQLQPFPQPQLPY [P56–68] |  | no effect |  |  |  | C-terminal tyrosine residue cleaved (presumably by carboxypeptidase P) [4]: 72%
5 | PF-LGQQQPFPPQQPY |  |  | QQPFPPQQP, minor | P-Y, major, 3 h; also recorded: L-G, 3 h; also recorded: G-Q, 3 h; also recorded: P-F, minor, 3 h | PF-LGQQQPFPPQQP, 3 h; also recorded: PF-LGQQQP, 3 h; also recorded: PF-LGQQ, 3 h; also recorded: PF-LGQ, 3 h | cleaved bond [7]: P-Y, 3 h
6 | PF-LQLQPFPQPQLPY |  |  | QLQPFPQPQLP, minor, 3 h; also recorded: LQPFPQPQLP, minor, 3 h; also recorded: QPFPQPQLP, minor, 3 h | P-Y, major, 3 h; also recorded: L-Q, minor, 3 h; also recorded: Q-L, minor, 3 h; also recorded: P-F, minor, 3 h | PF-LQ, 3 h | cleaved bond ([8]; up to 24 h): P-Y, major, 24 h; fragment found [9]: PF-LQLQPFPQPQ, 24 h; also recorded: PF-LQLQP, 24 h; also recorded: PF-LQL, 24 h; also recorded: PF-L, 24 h; also recorded: PF-LQLQPFPQPQLP, 24 h

— publication PMC4240668 (PLoS ONE, 2014)
